Results published in ChEMBL document CHEMBL3987221, “The Australian National University Dept Of Immunology Pathogen Box Compounds Screened” (2018).
The source made the active and inactive calls. No rule for the calls is given here.

Assays:
[1] = molecular target: T1, Ferrochelatase, mitochondrial (Homo sapiens) (UniProt P22830); settings: at 10 µM
T1 sequence (whole entry): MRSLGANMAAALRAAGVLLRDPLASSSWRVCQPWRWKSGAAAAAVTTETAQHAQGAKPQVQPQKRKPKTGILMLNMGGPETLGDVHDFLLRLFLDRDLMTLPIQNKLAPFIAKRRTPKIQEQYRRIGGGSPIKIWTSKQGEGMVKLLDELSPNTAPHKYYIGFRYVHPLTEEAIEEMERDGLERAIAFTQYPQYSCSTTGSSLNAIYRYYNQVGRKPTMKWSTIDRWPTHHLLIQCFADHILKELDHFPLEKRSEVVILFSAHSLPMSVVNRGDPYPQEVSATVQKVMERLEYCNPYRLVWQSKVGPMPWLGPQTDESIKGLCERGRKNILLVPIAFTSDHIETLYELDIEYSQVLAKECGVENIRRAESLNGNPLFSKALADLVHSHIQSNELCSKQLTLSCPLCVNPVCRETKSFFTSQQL
Description: (§1) Compound was evaluated for the inhibition of human FECH at 10uM

[2] = molecular target: T2, Porphobilinogen deaminase (Homo sapiens) (UniProt P08397); settings: at 100 µM
T2 sequence (whole entry): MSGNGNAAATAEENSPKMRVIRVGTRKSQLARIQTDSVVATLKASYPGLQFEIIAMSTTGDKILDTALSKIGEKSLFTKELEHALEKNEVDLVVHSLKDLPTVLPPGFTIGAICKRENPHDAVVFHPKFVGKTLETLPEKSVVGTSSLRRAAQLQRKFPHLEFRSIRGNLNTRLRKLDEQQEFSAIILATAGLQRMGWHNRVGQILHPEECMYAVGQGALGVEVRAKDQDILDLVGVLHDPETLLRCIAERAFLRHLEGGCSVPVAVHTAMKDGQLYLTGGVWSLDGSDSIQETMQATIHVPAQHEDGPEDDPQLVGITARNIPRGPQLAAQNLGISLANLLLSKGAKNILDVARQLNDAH
Description: (§2) Compound was evaluated for the inhibition of human HMBS at 100uM

[3] = molecular target: Ferrochelatase, mitochondrial (Homo sapiens) (UniProt P22830); settings: at 10 µM; remark: listed apart in the source
Description: as §1

[4] = molecular target: Porphobilinogen deaminase (Homo sapiens) (UniProt P08397); settings: at 100 µM; remark: listed apart in the source
Description: as §2

Molecule: COc1ccc(Cl)cc1NC(=O)CN(C)C(=O)c1cnn(-c2ccccc2)n1
- inhibition [1]: inactive
- inhibition [2]: inactive

Molecule: COc1ccc(OC(C)C(=O)Nc2ccc(Cl)cc2C)cc1 (configuration not stated)
- inhibition [1]: inactive
- inhibition [2]: inactive

Molecule: Cc1cc(C)n2nc(C(=O)Nc3cc(C(F)(F)F)ccc3N3CCOCC3)nc2n1
- inhibition [1]: inactive
- inhibition [2]: inactive

Molecule: Cc1ccc(C(=O)Nc2ccc(S(=O)(=O)O)c3cc(S(=O)(=O)O)cc(S(=O)(=O)O)c23)cc1NC(=O)c1cccc(NC(=O)Nc2cccc(C(=O)Nc3cc(C(=O)Nc4ccc(S(=O)(=O)O)c5cc(S(=O)(=O)O)cc(S(=O)(=O)O)c45)ccc3C)c2)c1
- inhibition [1]: inactive
- inhibition [2]: inactive

Molecule: O=C(c1[nH]nc2c1CCCC2)N1CCN(Cc2ccc3c(c2)OCO3)CC1
- inhibition [1]: inactive
- inhibition [2]: inactive

Molecule: CO/N=C(\C(=O)OC)c1ccccc1CO/N=C(\C)c1cccc(C(F)(F)F)c1
- inhibition [1]: inactive
- inhibition [2]: inactive

Molecule: CS(=O)(=O)c1cccc(-c2cnc3[nH]cc(-c4ccc(CCC(=O)O)cc4)c3c2)c1
- inhibition [1]: inactive
- inhibition [2]: inactive

Molecule: Cc1ccc(Oc2ccc(NC(=O)CNc3ccccc3N3CCCC3=O)cc2)cc1
- inhibition [1]: inactive
- inhibition [2]: inactive

Molecule: O=C(Nc1ccc(F)c(-c2nc3cc(-c4ccccc4)cnc3[nH]2)c1)N1CCCC1
- inhibition [1]: inactive
- inhibition [2]: inactive

Molecule: Cc1cc(Nc2ccc(C(F)(F)F)cc2)n2ccnc2n1
- inhibition [1]: inactive
- inhibition [2]: inactive

Molecule: CC1CCCN(C(=O)C(C)Nc2cc(Cl)ccc2N2CCOCC2)C1 (configuration not stated)
- inhibition [1]: inactive
- inhibition [2]: inactive

Molecule: CC(C)C(NC(=O)Cc1cccc2ccccc12)C(=O)Nc1cccc(C#N)c1 (configuration not stated)
- inhibition [1]: inactive
- inhibition [2]: inactive

Molecule: CC(C)(C)n1nc(-c2ccccc2)c2c(N)ncnc21
- inhibition [1]: inactive
- inhibition [2]: inactive

Molecule: CC(=O)NCC1CN(c2ccc(-c3ccc(CNCc4cn[nH]n4)cc3)c(F)c2)C(=O)O1 (configuration not stated)
- inhibition [1]: inactive
- inhibition [2]: inactive

Molecule: O=C(c1ccc(NCCO)cc1)C1C[C@H]1c1ccc(Cl)cc1 (some centres not stated)
- inhibition [1]: inactive
- inhibition [2]: inactive

Molecule: Nc1ncc(-c2ccc(C(F)(F)F)nc2)cc1-c1ccc(C(F)(F)F)nc1
- inhibition [1]: inactive
- inhibition [2]: inactive

Molecule: NC(=O)c1cc(Br)ccc1OCCOc1ccccc1
- inhibition [1]: inactive
- inhibition [2]: inactive

Molecule: Cc1nn(C(=O)Nc2cccc(C(F)(F)F)c2)c(C)c1Sc1ncccn1
- inhibition [1]: inactive
- inhibition [2]: inactive

Molecule: COc1cccn2c(C(=O)N3CCCCC3)c(C(F)(F)F)nc12
- inhibition [1]: inactive
- inhibition [2]: inactive

Molecule: O=C(NC1CC1)c1ccc(N2CCOc3ccc(Cl)cc32)s1
- inhibition [1]: inactive
- inhibition [2]: inactive

Molecule: Cc1cccc(-c2nc(Nc3ccncn3)c3sccc3n2)n1
- inhibition [1]: inactive
- inhibition [2]: inactive

Molecule: MMV688978
- inhibition [3]: inactive
- inhibition [4]: inactive

Molecule: C[C@]1(COc2ccc(N3CCC(Oc4ccc(OC(F)(F)F)cc4)CC3)cc2)Cn2cc([N+](=O)[O-])nc2O1
- inhibition [1]: inactive
- inhibition [2]: inactive

Molecule: O=C(CCC1CCCCC1)Nc1cccc(-c2nnc(-c3ccco3)o2)c1
- inhibition [1]: inactive
- inhibition [2]: inactive

Molecule: CCOC(=O)c1cc(-c2csc(Nc3c(C)cc(C)cc3C)n2)on1
- inhibition [1]: inactive
- inhibition [2]: inactive

Molecule: COC(=O)Nc1nc2cc(C(=O)c3ccccc3)ccc2[nH]1
- inhibition [1]: inactive
- inhibition [2]: inactive
